In US10160744B2, “Quinoline compounds suitable for treating disorders that respond to the modulation of the serotonin 5-HT6 receptor” (Abbvie Deutschland GmbH & Co. KG, priority 2016, dated 2018):

Assay: Metabolic stability in human liver microsomes (microsomal clearance)
Format: in vitro ADME
Conditions: pH 7.4; human liver microsomes 0.25 mg protein/mL, 0.5 μM compound, NADPH, 37° C.; read-out: mClint
Description: Samples of the tested compounds (0.5 μM) were preincubated together with human liver microsomes (0.25 mg of microsomal protein/mL) in 0.05 M potassium phosphate buffer of pH 7.4 in microtiter plates at 37° C. for 5 minutes. The reaction was started by adding NADPH (1.0 mM). After 0, 5, 10, 15, 20 and 30 minutes, an aliquot was removed, the reaction was cooled and stopped by adding twice the amount of quench solution consisting of acetonitrile/methanol 1:1, and containing 0.2 μM carbutamide as internal standard. The samples were frozen until analyzed. The remaining concentration of undegraded test substance was determined by liquid chromatography-tandem mass spectrometry (LC-MS/MS). The half-life (t1/2) was determined from the gradient of the ratio of the signal of (test substance/internal standard)/unit time plot, allowing the calculation of the half-life of the test substance, assuming first order kinetics, from the decrease in the concentration of the compound with time. The microsomal clearance (mClint) was calculated as follows: mClint=((ln(2)/t 1/2)/Microsomal Protein Concentration (mg/ml))*1000, leading to the unit of μL/min/mg.

`N#Cc1cccc(S(=O)(=O)c2cnc3c(N4CCC(C(=O)O)CC4)cccc3c2)c1` [Example 47, 1-[3-(3-Cyanophenyl)sulfonyl-8-quinolyl]piperidine-4-carboxylic Acid] and `Cc1cccc(S(=O)(=O)c2cnc3c(N4CCC(C(=O)O)CC4)cccc3c2)c1` [Example 50, 1-[3-(m-Tolylsulfonyl)-8-quinolyl]piperidine-4-carboxylic Acid] cannot be ordered by microsomal CLint at 0.5 μM: less than 30 µL/min/mg for the first, less than 30 µL/min/mg for the second.

`O=C(O)C1CCN(c2cccc3cc(S(=O)(=O)c4cccc(OC(F)(F)F)c4)cnc23)CC1` [Example 51, 1-[3-[3-(Trifluoromethoxy)phenyl]sulfonyl-8-quinolyl]piperidine-4-carboxylic Acid] and `O=C(O)C1CCN(c2cccc3cc(S(=O)(=O)c4cccc(F)c4)cnc23)CC1` [Example 52, 1-[3-(3-Fluorophenyl)sulfonyl-8-quinolyl]piperidine-4-carboxylic Acid] fall in the same range of microsomal CLint at 0.5 μM: 30 to 60 µL/min/mg for the first, 30 to 60 µL/min/mg for the second.

Compared with `COC1CCN(c2cccc(S(=O)(=O)c3cnc4c(N5CCC(C(=O)O)CC5)cccc4c3)c2)C1` (centres unmarked) [Example 54, 1-[3-[3-(3-Methoxypyrrolidin-1-yl)phenyl]sulfonyl-8-quinolyl]piperidine-4-carboxylic Acid], `O=C(O)C1CCN(c2cccc3cc(S(=O)(=O)c4cccc(N5CCCC5)c4)cnc23)CC1` [Example 53, 1-[3-(3-Pyrrolidin-1-ylphenyl)sulfonyl-8-quinolyl]piperidine-4-carboxylic Acid] is higher in microsomal CLint at 0.5 μM: less than 30 µL/min/mg for the first, 30 to 60 µL/min/mg for the second.

`O=C(O)C1CCN(c2cccc3cc(S(=O)(=O)c4cccc(N5CCNCC5)c4)cnc23)CC1` [Example 55, 1-[3-(3-Piperazin-1-ylphenyl)sulfonyl-8-quinolyl]piperidine-4-carboxylic Acid] and `CN1CCN(c2cccc(S(=O)(=O)c3cnc4c(N5CCC(C(=O)O)CC5)cccc4c3)c2)CC1` [Example 56, 1-[3-[3-(4-Methylpiperazin-1-yl)phenyl]sulfonyl-8-quinolyl]piperidine-4-carboxylic Acid] cannot be ordered by microsomal CLint at 0.5 μM: less than 30 µL/min/mg for the first, less than 30 µL/min/mg for the second.

`O=C(O)c1cccc(S(=O)(=O)c2cnc3c(N4CCC(C(=O)O)CC4)cccc3c2)c1` [Example 49, 1-[3-(3-Carboxyphenyl)sulfonyl-8-quinolyl]piperidine-4-carboxylic Acid] and `O=C(O)CC1CCN(c2cccc3cc(S(=O)(=O)c4cccc(C(F)(F)F)c4)cnc23)CC1` [Example 57, 2-[1-[3-[3-(Trifluoromethyl)phenyl]sulfonyl-8-quinolyl]-4-piperidyl]acetic Acid] cannot be ordered by microsomal CLint at 0.5 μM: less than 30 µL/min/mg for the first, less than 30 µL/min/mg for the second.

With `O=C(O)CC1CCCN(c2cccc3cc(S(=O)(=O)c4cccc(C(F)(F)F)c4)cnc23)C1` (centres unmarked) [Example 58, 2-[1-[3-[3-(Trifluoromethyl)phenyl]sulfonyl-8-quinolyl]-3-piperidyl]acetic Acid] the microsomal CLint at 0.5 μM was 30 to 60 µL/min/mg.
